Activity calls are given as the source filed them. No cut-off for these calls is given here.

In experiment [1] the test system is Candida albicans. The experiment is described as follows: Antimicrobial activity against Candida albicans ATCC 14053 at 200 ug/disk. The class given is functional, organism-based.
For experiment [2], the system named is Bacillus subtilis. The experiment is described as follows: Antimicrobial activity against Bacillus subtilis ATCC 6051 at 200 ug/disk. Conditions: read-out: IZ. The class given is functional.
The subject of experiment [3] is Staphylococcus aureus. The experiment is described as follows: Antimicrobial activity against Staphylococcus aureus ATCC 29213 at 200 ug/disk. It is filed as functional. As to conditions: read-out: IZ.

As for `COc1c(C(CC(C)C)OC)ccc(Oc2c(O)cc(C)cc2C=O)c1C(=O)O` (stereo not given) [TENELLIC ACID A], in experiment [1], the outcome was inactive. Besides, the zone of inhibition at 200 µg/disc in experiment [2] was determined as 11 mm.
`COc1c(C(O)CC(C)C)ccc(Oc2c(O)cc(C)cc2C=O)c1C(=O)O` (stereo not given) [TENELLIC ACID B]: in experiment [1], the outcome was inactive. Further, the zone of inhibition at 200 µg/disc in experiment [2] came to 9 mm.
`COc1c(C(CC(C)C)OC(C)=O)ccc(Oc2c(O)cc(C)cc2C=O)c1C(=O)O` (stereo not given) [TENELLIC ACID C]: the zone of inhibition at 200 µg/disc in experiment [3] is 14 mm; in experiment [2] it was 12 mm. In addition, the outcome in experiment [1] was inactive.
As to `COc1c(C(CC(C)C)OCC(C)C)ccc(Oc2c(O)cc(C)cc2C=O)c1C(=O)O` (stereo not given) [TENELLIC ACID D], the figures for the zone of inhibition at 200 µg/disc in experiment [3] and in experiment [2] were 25 mm and 29 mm, respectively. Also, in experiment [1], the result was inactive.

The record behind these values is ChEMBL document CHEMBL1141822, “Tenellic acids A-D: new bioactive diphenyl ether derivatives from the aquatic fungus Dendrospora tenella” (1999).
